Source: US20140031227A1, “HERBICIDAL COMPOSITIONS COMPRISING 4-AMINO-3-CHLORO-5-FLUORO-6-(4-CHLORO-2-FLUORO-3-METHOXYPHENYL) PYRIDINE-2-CARBOXYLIC ACID OR A DERIVATIVE THEREOF AND GLYPHOSATE OR GLUFOSINATE” (DOW AGROSCIENCES LLC, priority 2012, published 2014)
Counter-ions that a name gives are not always drawn.

What was measured:
Type in all cases: in vivo
[1] = system: CHEAL (Chenopodium album L., common lambsquarters); test: Example IV postemergence foliar-applied mixtures, general weed control, greenhouse: CHEAL
Description: (§1) Seeds or nutlets of the desired test plant species were planted in Sun Gro Metro-Mix® 360 planting mixture, which typically has a pH of 6.0 to 6.8 and an organic matter content of about 30 percent, in plastic pots with a surface area of 84.6 square centimeters (cm^2). […] The plants were grown for 7-31 days (d) in a greenhouse with an approximate 15 hour (h) photoperiod which was maintained at about 23-29° C. during the day and 22-28° C. during the night. Nutrients (Peters Excel® 15-5-15 5-Ca 2-Mg) and water were added on a regular basis and supplemental lighting was provided with overhead metal halide 1000-Watt lamps as necessary. The plants were employed for testing when they reached the first, second, or third true leaf stage.
(§2) Treatments consisted of the acid or the benzyl ester of 4-amino-3-chloro-5-fluoro-6-(4-chloro-2-fluoro-3-methoxy-phenyl)pyridine-2-carboxylic acid (Compound A), each formulated as an SC, and various herbicidal components alone and in combination. Forms of compound A were applied on an acid equivalent basis.
(§3) Other herbicidal components were applied on an acid equivalent or active ingredient basis and included the 5-enolpyruvylshikimate-3-phosphate synthase (EPSPS)-inhibiting herbicide, glyphosate dimethylamine salt, formulated as Durango DMA® and the glutamine synthase (GS)-inhibiting herbicide, glufosinate ammonium, formulated as Ignite® 280.
(§4) For treatments comprised of formulated compounds, measured amounts of compounds were placed individually in 25 mL glass vials and diluted in a volume of 1.25% (v/v) Agri-dex crop oil concentrated to obtain 12× stock solutions. […] Application solutions were prepared by adding an appropriate amount of each stock solution (typically 1 mL) and diluted to the appropriate final concentrations with the addition of 10 mL of an aqueous mixture of 1.25% (v/v) Agri-dex crop oil concentrate so that the final spray solutions contained 1.25% (v/v) Agri-dex crop oil concentrate.
(§5) All stock solutions and applications solutions were visually inspected for compound compatibility prior to application. Compound requirements are based upon a 12 mL application volume at a rate of 187 liters per hectare (L/ha). Formulated compounds were applied to the plant material with an overhead Mandel track sprayer equipped with 8002E nozzles calibrated to deliver 187 L/ha over an application area of 0.503 square meters (m^2) at a spray height of 18 to 20 inches (46 to 50 cm) above the average plant canopy height. Control plants were sprayed in the same manner with the solvent blank.
(§6) The treated plants and control plants were placed in a greenhouse as described above and watered by sub-irrigation to prevent wash-off of the test compounds. After approximately 3 weeks, the condition of the test plants as compared with that of the untreated plants was determined visually and scored on a scale of 0 to 100 percent where 0 corresponds to no injury or growth inhibition and 100 corresponds to complete kill.
(§7) Colby's equation was used to determine the herbicidal effects expected from the mixtures (Colby, S. R. 1967. Calculation of the synergistic and antagonistic response of herbicide combinations. Weeds 15:20-22.) .

[2] = system: DIGSA (Digitaria sanguinalis (L.) Scop., large crabgrass); test: Example IV postemergence foliar-applied mixtures, general weed control, greenhouse: DIGSA
Description: as §1, §2, §3, §4, §5, §6, §7

[3] = system: CYPES (Cyperus esculentus L., yellow nutsedge); test: Example IV postemergence foliar-applied mixtures, general weed control, greenhouse: CYPES
Description: as §1, §2, §3, §4, §5, §6, §7

[4] = system: CIRAR (Cirsium arvense (L.) Scop., Canada thistle); test: Example IV postemergence foliar-applied mixtures, general weed control, greenhouse: CIRAR (Table 17, species inferred from b27)
Description: as §1, §2, §3, §4, §5, §6, §7

[5] = system: IPOHE (Ipomoea hederacea Jacq., morning glory, ivyleaf); test: Example IV postemergence foliar-applied mixtures, general weed control, greenhouse: IPOHE
Description: as §6, §7
The following equation was used to calculate the expected activity of mixtures containing two active ingredients, A and B:
A=observed efficacy of active ingredient A at the same concentration as used in the mixture.
B=observed efficacy of active ingredient B at the same concentration as used in the mixture.

[6] = system: AVEFA (Avena fatua L., wild oat); test: Example III postemergence foliar-applied mixtures, row crop weeds (corn, soybean), greenhouse: AVEFA
Description: as §1, with “a soil matrix prepared by mixing a loam or sandy loam soil (e.g., 43 percent silt, 19 percent clay, and 38 percent sand, with” for “Sun Gro Metro-Mix® 360 planting mixture, which typically has”, “about 8.1” for “6.0 to 6.8”, “1.5 percent) and calcareous grit in an 80 to 20 ratio. The soil matrix was contained” for “30 percent,”, “square centimters (cm^2) and a volume of 560 cubic” for “square”, “(cm^3).” for “(cm^2).”
(§8) Treatments consisted of the acid or esters of 4-amino-3-chloro-5-fluoro-6-(4-chloro-2-fluoro-3-methoxy-phenyl)pyridine-2-carboxylic acid (Compound A), each formulated as an
(§9) SC (suspension concentrate), and various herbicidal components alone and in combination. Forms of compound A were applied on an acid equivalent basis.
as §3
(§10) For treatments comprised of formulated compounds, measured amounts of compounds were placed individually in 25 mL glass vials and diluted in a volume of 1.5% (v/v) Agri-dex® crop oil concentrate to obtain 6× stock solutions. […] Application solutions were prepared by adding an appropriate amount of each stock solution (typically 2 mL) and diluted to the appropriate final concentrations with the addition of an aqueous mixture of 1.5% (v/v) crop oil concentrate and water so that the final spray solutions contained 1.25% (v/v) crop oil concentrate.
as §5
as §6, with “2” for “3”
(§11) The following equation was used to calculate the expected activity of mixtures containing two active ingredients, A and B: […]

[7] = system: ELEIN (Eleusine indica (L.) Gaertn., goosegrass); test: Example III postemergence foliar-applied mixtures, row crop weeds (corn, soybean), greenhouse: ELEIN
Description: as §1, with “a soil matrix prepared by mixing a loam or sandy loam soil (e.g., 43 percent silt, 19 percent clay, and 38 percent sand, with” for “Sun Gro Metro-Mix® 360 planting mixture, which typically has”, “about 8.1” for “6.0 to 6.8”, “1.5 percent) and calcareous grit in an 80 to 20 ratio. The soil matrix was contained” for “30 percent,”, “square centimters (cm^2) and a volume of 560 cubic” for “square”, “(cm^3).” for “(cm^2).”
as §8, §9, §3, §10, §5
as §6, with “2” for “3”
as §11

[8] = Compound A Benzyl Ester 2 gae/ha alone, 18 DAA
[9] = Compound A Benzyl Ester 4 gae/ha alone, 18 DAA
[10] = Compound A Benzyl Ester 8 gae/ha alone, 18 DAA
[11] = Compound A Benzyl Ester alone, 2 gae/ha
[12] = Compound A Benzyl Ester alone, 4 gae/ha
[13] = Compound A Benzyl Ester alone, 8 gae/ha
[14] = Compound A Benzyl Ester alone, 16 gae/ha
[15] = Compound A Benzyl Ester alone, 32 gae/ha
[16] = Compound A Benzyl Ester 2 gae/ha alone
[17] = Compound A Benzyl Ester 4 gae/ha alone
[18] = Compound A Benzyl Ester 8 gae/ha alone
[19] = Compound A Benzyl Ester 16 gae/ha alone
[20] = Compound A Benzyl Ester 32 gae/ha alone
[21] = Compound A Acid alone, 7.5 gae/ha
[22] = Compound A Acid alone, 15 gae/ha
[23] = glufosinate ammonium alone, 28.25 gae/ha
[24] = glufosinate ammonium alone, 56.5 gae/ha
[25] = Glufosinate ammonium salt 112.5 gai/ha alone, 18 DAA
[26] = Glufosinate ammonium salt 225 gai/ha alone, 18 DAA
[27] = Glufosinate ammonium salt 450 gai/ha alone, 18 DAA
[28] = Glufosinate ammonium salt 225 gai/ha alone

COc1c(Cl)ccc(-c2nc(C(=O)OCc3ccccc3)c(Cl)c(N)c2F)c1F [Compound A Benzyl Ester]
Visual Weed Control (%) - 18 DAA CHEAL Obs [1, 8]: 50% | Visual Weed Control (%) - 18 DAA CHEAL Obs [1, 9]: 70% | Visual Weed Control (%) - 18 DAA CHEAL Obs [1, 10]: 90% | Visual Weed Control (%) - 18 DAA CHEAL Obs [1, 11]: 50% | Visual Weed Control (%) - 18 DAA CHEAL Obs [1, 12]: 70% | Visual Weed Control (%) - 18 DAA CHEAL Obs [1, 13]: 90% | Visual Weed Control (%) - 18 DAA CHEAL Obs [1, 14]: 95% | Visual Weed Control (%) - 18 DAA CHEAL Obs [1, 15]: 99% | Visual Weed Control (%) - 18 DAA DIGSA Obs [2, 8]: 0% | Visual Weed Control (%) - 18 DAA DIGSA Obs [2, 9]: 0% | Visual Weed Control (%) - 18 DAA DIGSA Obs [2, 10]: 0% | Visual Weed Control (%) - 18 DAA DIGSA Obs ([2]; Compound A Benzyl Ester 16 gae/ha alone, 18 DAA): 0% | Visual Weed Control (%) - 18 DAA DIGSA Obs ([2]; Compound A Benzyl Ester 32 gae/ha alone, 18 DAA): 30% | Visual Weed Control (%) - 18 DAA DIGSA Obs [2, 11]: 0% | Visual Weed Control (%) - 18 DAA DIGSA Obs [2, 12]: 0% | Visual Weed Control (%) - 18 DAA DIGSA Obs [2, 13]: 0% | Visual Weed Control (%) - 18 DAA DIGSA Obs [2, 14]: 0% | Visual Weed Control (%) - 18 DAA DIGSA Obs [2, 15]: 30% | Visual Weed Control (%) - 18 DAA CYPES Obs [3, 8]: 40% | Visual Weed Control (%) - 18 DAA CYPES Obs [3, 9]: 75% | Visual Weed Control (%) - 18 DAA CYPES Obs [3, 10]: 80% | Visual Weed Control (%) - 18 DAA CYPES Obs [3, 11]: 40% | Visual Weed Control (%) - 18 DAA CIRAR Obs [4, 16]: 60% | Visual Weed Control (%) - 18 DAA CIRAR Obs [4, 17]: 70% | Visual Weed Control (%) - 18 DAA CIRAR Obs [4, 18]: 80% | Visual Weed Control (%) - 18 DAA CIRAR Obs [4, 19]: 85% | Visual Weed Control (%) - 18 DAA CIRAR Obs [4, 20]: 90% | Visual Weed Control (%) - 18 DAA IPOHE Obs [5, 16]: 15% | Visual Weed Control (%) - 18 DAA IPOHE Obs [5, 17]: 25% | Visual Weed Control (%) - 18 DAA IPOHE Obs [5, 18]: 25% | Visual Weed Control (%) - 18 DAA IPOHE Obs [5, 19]: 35% | Visual Weed Control (%) - 18 DAA IPOHE Obs [5, 20]: 45%

COc1c(Cl)ccc(-c2nc(C(=O)O)c(Cl)c(N)c2F)c1F [Compound A Acid, 4-amino-3-chloro-6-(4-chloro-2-fluoro-3-methoxyphenyl)-5-fluoropyridine-2-carboxylic acid]
Visual Weed Control (%) - 16 DAA AVEFA Obs ([6]; Compound A Acid alone, 3.75 gae/ha): 0% | Visual Weed Control (%) - 16 DAA AVEFA Obs [6, 21]: 0% | Visual Weed Control (%) - 16 DAA AVEFA Obs [6, 22]: 10% | Visual Weed Control (%) - 16 DAA ELEIN Obs [7, 21]: 10% | Visual Weed Control (%) - 16 DAA ELEIN Obs [7, 22]: 10%

CP(=O)(O)CCC(N)C(=O)O (centres unmarked) [Glufosinate ammonium salt, 2-amino-4-(hydroxymethylphosphinyl)butanoic acid monoammonium salt, reference compound]
Visual Weed Control (%) - 16 DAA AVEFA Obs [6, 23]: 0% | Visual Weed Control (%) - 16 DAA AVEFA Obs [6, 24]: 0% | Visual Weed Control (%) - 16 DAA ELEIN Obs [7, 23]: 0% | Visual Weed Control (%) - 16 DAA ELEIN Obs [7, 24]: 0% | Visual Weed Control (%) - 16 DAA ELEIN Obs ([7]; glufosinate ammonium alone, 113 gae/ha): 10% | Visual Weed Control (%) - 18 DAA CHEAL Obs [1, 25]: 0% | Visual Weed Control (%) - 18 DAA CHEAL Obs [1, 26]: 10% | Visual Weed Control (%) - 18 DAA CHEAL Obs [1, 27]: 30% | Visual Weed Control (%) - 18 DAA DIGSA Obs [2, 26]: 25% | Visual Weed Control (%) - 18 DAA CYPES Obs [3, 25]: 0% | Visual Weed Control (%) - 18 DAA CYPES Obs [3, 26]: 0% | Visual Weed Control (%) - 18 DAA CYPES Obs [3, 27]: 0% | Visual Weed Control (%) - 18 DAA CIRAR Obs [4, 28]: 15% | Visual Weed Control (%) - 18 DAA IPOHE Obs ([5]; Glufosinate ammonium salt 112.5 gai/ha alone): 10% | Visual Weed Control (%) - 18 DAA IPOHE Obs [5, 28]: 20% | Visual Weed Control (%) - 18 DAA IPOHE Obs ([5]; Glufosinate ammonium salt 450 gai/ha alone): 50%
